Data published in US5036077A, “1-(benzylpiperidino)propan-2-ol derivatives, their preparation, their use as antimicrobial agents and the products in which they are present” (Sanofi, priority 1987, dated 1991).
In brackets after ≈: the same amount, converted by molar mass.

Legend:
Type in all cases: cell-based
[1] = tested on: Streptococcus faecalis CNCM 5855; assay: Minimum bactericidal concentration, 30 min contact, strain 2; conditions: Streptococcus faecalis CNCM 5855, contact time 30 minutes, solubilizing agent given per product; for MBC: Enterococcus faecalis, CNCM5855, 0.5 h, read-out: MBC, strain 2
Protocol: (§1) A bacterial inoculum is brought into contact with different dilutions of the test product for a limited time of 30 minutes. When the contact time has ended, an aliquot of the bacterial suspension/product mixture is deposited on the surface of a gelose culture medium containing an agent for neutralizing the antibacterial activity of the product. The bactericidal concentration chosen is the minimum concentration of the product which is necessary to prevent bacterial growth. This concentration is expressed in μg/ml.
2 - Streptococcus faecalis CNCM 5855;
(§2) The strains are maintained on Tryptic Soy Agar (TSA) marketed by Difco.
(§3) After 24 hours of culture at 37° C., the microbial growth is harvested with the aid of glass beads and 10 ml of diluent containing 1 g of tryptone and 8.5 g of sodium chloride in 1000 ml of distilled water. The suspension formed is shaken and the percentage transmission of light at 620 nm is measured on a spectrophotometer:
(§4) The bacterial inoculum corresponds to a 1/20 dilution of this bacterial suspension.
(§5) Plates containing cups receive different dilutions of the test product. These dilutions of the test product are brought into contact with the different bacterial suspensions using a multiple-site inoculator. After a contact time of 30 minutes, aliquots are transferred by means of this inoculator to the surface of a gelose medium (TSA) placed in petri dishes and containing an agent for neutralizing the activity, namely 20 g of lubrol W, 2.5 g of Tween 80, 2.5 g of sodium thiosulfate and 1% of egg yolk in 1000 ml of TSA (Difco). A reference for the efficacy of the neutralizing agent is prepared for each test product by depositing an aliquot of the dilution of the test product on the surface of the culture medium. After drying, the corresponding inoculum is deposited in the same place. A reference inoculum is prepared on a gelose medium with and without neutralizing agent. The results are read off after 48 hours of incubation at 37° C.
(§6) They indicate the minimum bactericidal concentrations (MBC) for strains 1, 2, 3 and 4 and the minimum fungicidal concentrations (MFC) for strain 5.

[2] = tested on: Escherichia coli CNCM 54127; assay: Minimum bactericidal concentration, 30 min contact, strain 4; conditions: Escherichia coli CNCM 54127, contact time 30 minutes, solubilizing agent given per product; for MBC: CNCM54127, 0.5 h, read-out: MBC, strain 4
Protocol: as §1
4 - Escherichia coli CNCM 54127.
as §2, §3, §4, §5, §6

[3] = tested on: Pseudomonas aeruginosa CNCM A22; assay: Minimum bactericidal concentration, 30 min contact, strain 3; conditions: Pseudomonas aeruginosa CNCM A22, contact time 30 minutes, solubilizing agent given per product; for MBC: CNCMA22, 0.5 h, read-out: MBC, strain 3
Protocol: as §1
3 - Pseudomonas aeruginosa CNCM A22;
as §2, §3, §4, §5, §6

[4] = tested on: Candida albicans CNCM 1180; assay: Minimum fungicidal concentration, strain 5; conditions: Candida albicans CNCM 1180, contact time 30 minutes, solubilizing agent given per product; for MFC: CNCM1180, 0.5 h, read-out: MFC, strain 5
Protocol: as §1, §5
The antifungal activity of the products according to the invention was also determined using the method described above. The representative strain of yeast selected for the study was Candida albicans CNCM 1180 (strain 5).
This is maintained on a gelose medium of Sabouraud Dextrose Agar, marketed by Difco. The technique is identical to that described for studying the antibacterial activity. After 48 hours of culture at 37° C., the microbial growth is harvested with the aid of glass beads and 5 ml of diluent containing 1 g of tryptone and 8.5 g of sodium chloride in 1000 ml of distilled water; a further 5 ml of the diluent are then added. In a spectrophotometer, this suspension gives a 2 to 3% transmission of light at 620 nm. The inoculum corresponds to a 1/10 dilution of this microbial suspension. A 1/100 dilution of this suspension, observed between a microscope slide and cover slip through a lens of magnification 40, should show 10 cells per field, which corresponds to 1 000 000 yeasts per ml.
as §6

[5] = tested on: Staphylococcus aureus CNCM 53154; assay: Minimum bactericidal concentration, 30 min contact, strain 1; conditions: Staphylococcus aureus CNCM 53154, contact time 30 minutes, solubilizing agent (water, TEG or acetone) given per product; for MBC: CNCM53154, 0.5 h, read-out: MBC, strain 1
Protocol: as §1
1 - Staphylococcus aureus CNCM 53154;
as §2, §3, §4, §5, §6

| SMILES | MBC [1] [µg/mL] | MBC [2] [µg/mL] | MBC [3] [µg/mL] | MFC [4] [µg/mL] | MBC [5] [µg/mL] | MBC, strain 2 [1] [µg/mL] | MFC, strain 5 [4] [µg/mL] | MBC, strain 1 [5] [µg/mL] | MBC, strain 4 [2] [µg/mL] | MBC, strain 3 [3] [µg/mL] |
| --- | --- | --- | --- | --- | --- | --- | --- | --- | --- | --- |
| OC(COc1ccc(F)cc1F)CN1CCC(Cc2ccccc2)CC1 (racemic) [SR 44971 A] | 1000 (≈ 2770 µM) | 1000 (≈ 2770 µM) | 1000 (≈ 2770 µM) | 1000 (≈ 2770 µM) | 1000 (≈ 2770 µM) | – | – | – | – | – |
| OC(COc1cccc2ccccc12)CN1CCC(Cc2ccc(Cl)cc2)CC1 (racemic) [SR 44999 A] | ≤ 10 | ≤ 10 | ≤ 10 | ≤ 10 | 50 (≈ 122 µM) | – | – | – | – | – |
| OC(CSc1ccc(Br)cc1)CN1CCC(Cc2ccc(Cl)cc2)CC1 (racemic) [SR 45076 A] | 10 (≈ 22 µM) | 10 (≈ 22 µM) | 50 (≈ 110 µM) | 50 (≈ 110 µM) | 50 (≈ 110 µM) | – | – | – | – | – |
| OC(CSc1ccc(Cl)c(Cl)c1)CN1CCC(Cc2ccc(Cl)cc2)CC1 (racemic) [SR 45077 A] | 10 (≈ 22.5 µM) | 10 (≈ 22.5 µM) | 50 (≈ 112 µM) | 50 (≈ 112 µM) | 50 (≈ 112 µM) | – | – | – | – | – |
| OC(CSc1cccc(Br)c1)CN1CCC(Cc2ccccc2)CC1 (racemic) [SR 45204 A] | > 200 | 50 (≈ 119 µM) | 50 (≈ 119 µM) | > 200 | > 200 | – | – | – | – | – |
| OC(COc1ccc(Cl)c(Cl)c1)CN1CCC(Cc2ccccc2)CC1 (racemic) [SR 45551 A] | 50 (≈ 127 µM) | 50 (≈ 127 µM) | 50 (≈ 127 µM) | > 200 | > 200 | – | – | – | – | – |
| OC(COc1ccc(Cl)c(Cl)c1)CN1CCC(Cc2ccc(Cl)cc2)CC1 (racemic) [SR 45553 A] | 50 (≈ 117 µM) | 10 (≈ 23.3 µM) | 50 (≈ 117 µM) | 50 (≈ 117 µM) | 10 (≈ 23.3 µM) | – | – | – | – | – |
| OC(CSc1ccc(Cl)c(Cl)c1)CN1CCCC(Cc2ccccc2)C1 (single isomer, unassigned) [SR 45236 A] | 50 (≈ 122 µM) | 50 (≈ 122 µM) | 50 (≈ 122 µM) | > 200 | > 200 | – | – | – | – | – |
| OC(CSc1ccc(Cl)c(Cl)c1)CN1CCCC(Cc2ccccc2)C1 (single isomer, unassigned) [SR 45237 A] | – | – | – | – | – | 50 (≈ 122 µM) | > 200 | > 200 | – | – |
| Cl.OC(COc1ccc(Cl)cc1Cl)CN1CCC(Cc2ccccc2)CC1 (stereo not drawn) [SR 44333 A, 1-(4-Benzylpiperidino)-3-(2,4-dichlorophenoxy)propan-2-ol hydrochloride] | 100 | 50 | 50 | – | 100 | – | – | – | – | – |
| Cl.OC(CSc1ccc(Br)cc1)CN1CCC(Cc2ccccc2)CC1 (stereo not drawn) [SR 44444 A, 1-(4-Benzylpiperidino)-3-(4-bromophenylthio)propan-2-ol hydrochloride] | 50 | 50 | 50 | – | 50 | – | – | – | – | – |
| Cl.OC(COc1ccc2ccccc2c1Br)CN1CCC(Cc2ccccc2)CC1 (stereo not drawn) [SR 44716 A, 1-(4-Benzylpiperidino)-3-(1-bromonaphth-2-yloxy)propan-2-ol hydrochloride] | 50 | 10 | 10 | 50 | 50 | – | – | – | – | – |
| Cl.OC(COc1ccc(Cl)cc1Cc1ccccc1)CN1CCC(Cc2ccccc2)CC1 (stereo not drawn) [SR 44719 A, 3-(2-Benzyl-4-chlorophenoxy)-1-(4-benzylpiperidino)propan-2-ol hydrochloride] | 10 | 5 | 10 | 50 | 10 | – | – | – | – | – |
| CS(=O)(=O)O.OC(COc1ccc(Cl)cc1Cl)CN1CCCC(Cc2ccccc2)C1 (stereo not drawn) [SR 44957 A, 1-(3-Benzylpiperidino)-3-(2,4-dichlorophenoxy)propan-2-ol methanesulfonate] | – | – | – | – | – | ≤ 10 | 50 | 50 | ≤ 10 | ≤ 10 |
